Patent US20140179523A1, “HERBICIDAL COMPOSITIONS COMPRISING 4-AMINO-3-CHLORO-6-(4-CHLORO-2-FLUORO-3-METHOXYPHENYL) PYRIDINE-2-CARBOXYLIC ACID OR A DERIVATIVE THEREOF AND FLUFENACET” (DOW AGROSCIENCES LLC, priority 2012, published 2014)

Test system: field violet (Viola arvensis, VIOAR)
Experiment: Field trials, post-emergence application in winter wheat, % biomass control visually rated
Assay type: in vivo
Text: The materials were applied early post-emergence. % BIOMASS CONTROL was visually rated.

Compound | % BIOMASS CONTROL 39 DAA Obs (flufenacet 240 g ai/ha) [d %] | % BIOMASS CONTROL 181 DAA Obs (flufenacet 240 g ai/ha) [g %] | % BIOMASS CONTROL 225 DAA Obs (flufenacet 240 g ai/ha) [g %] | % BIOMASS CONTROL 39 DAA Obs (Cmpd 1 7.5 g ae/ha) [d %] | % BIOMASS CONTROL 181 DAA Obs (Cmpd 1 7.5 g ae/ha) [f %] | % BIOMASS CONTROL 225 DAA Obs (Cmpd 1 7.5 g ae/ha) [f %]
CC(C)N(C(=O)COc1nnc(C(F)(F)F)s1)c1ccc(F)cc1 [Flufenacet, N-(4-fluorophenyl)-N-(1-methylethyl)-2-[[5-(trifluoromethyl)-1,3,4-thiadiazol-2-yl]oxy]acetamide] | 10.00 | 15.00 | 10.00 | – | – | –
COC(=O)c1nc(-c2ccc(Cl)c(OC)c2F)cc(N)c1Cl [Cmpd 1, methyl 4-amino-3-chloro-6-(4-chloro-2-fluoro-3-methoxyphenyl)-pyridine-2-carboxylate] | – | – | – | 13.33 | 23.33 | 18.33
